What was measured:
Assay in all cases: relative viability (nuclei count vs DMSO), 5 days (fraction); higher = more cells survive
Mirin + Bortezomib = compound: N=C1NC(=O)/C(=C/c2ccc(O)cc2)S1 [Mirin] + CC(C)C[C@H](NC(=O)[C@H](Cc1ccccc1)NC(=O)c1cnccn1)B(O)O [Bortezomib] (partner 0.002 µM)
In short: (§1)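 Nuclei were stained with Hoechst during a one-step fixation (final 0.05% Triton X-100, 1% formaldehyde, 1 ug/ml Hoechst) carried out 5 days after dosing, then counted on 4× images. The cells, lung cancer lines in 1536-well plates, had been dosed by pin tool the day after seeding with one drug alone or a fixed anchor-drug dose plus five library-drug doses (not always all listed) in √10 steps. Relative viability is the nuclei count in treated wells divided by that in vehicle wells, and each value is the median of duplicate plates.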

[1] = compound: CCC1=CN=CN=C1N2CCN(CC2)CC3=NC4=C(N3)C=C(C=C4)C(F)(F)F + CC(=O)c1c(C)c2cnc(Nc3ccc(N4CCNCC4)cn3)nc2n(C2CCCC2)c1=O [Palbociclib] (partner 0.5 µM)
In short: as §1

[2] = compound: CCn1c(-c2nonc2N)nc2cnc(Oc3cccc(NC(=O)c4ccc(OCCN5CCOCC5)cc4)c3)cc21 + C[C@@H](Oc1cc(-c2cnn(C3CCNCC3)c2)cnc1N)c1c(Cl)ccc(F)c1Cl [Crizotinib] (partner 1 µM)
In short: as §1

[3] = compound: CCC1=CN=CN=C1N2CCN(CC2)CC3=NC4=C(N3)C=C(C=C4)C(F)(F)F + N=C(N)NC(=N)NCCc1ccccc1 [Phenformin] (partner 250 µM)
In short: as §1

RERF-LC-KJ
relative viability (Mirin + Bortezomib; first compound 0.25 µM): 1.22
relative viability (Mirin + Bortezomib; first compound 0.7906 µM): 1.25
relative viability (Mirin + Bortezomib; first compound 2.5 µM): 1.07
relative viability (Mirin + Bortezomib; first compound 7.906 µM): 1.18
relative viability (Mirin + Bortezomib; first compound 25 µM): 1.2
relative viability ([1]; first compound 0.04 µM): 1.05
relative viability ([1]; first compound 0.1265 µM): 1.06
relative viability ([1]; first compound 0.4 µM): 1.02
relative viability ([1]; first compound 1.265 µM): 0.971
relative viability ([1]; first compound 4 µM): 0.923
relative viability ([2]; first compound 0.04 µM): 0.886
relative viability ([2]; first compound 0.1265 µM): 0.822
relative viability ([2]; first compound 0.4 µM): 0.82
relative viability ([2]; first compound 1.265 µM): 0.535
relative viability ([2]; first compound 4 µM): 0.36
relative viability ([3]; first compound 0.04 µM): 0.407
relative viability ([3]; first compound 0.1265 µM): 0.382
relative viability ([3]; first compound 0.4 µM): 0.467
relative viability ([3]; first compound 1.265 µM): 0.366
relative viability ([3]; first compound 4 µM): 0.41

CAL-12T
relative viability (Mirin + Bortezomib; first compound 0.25 µM): 0.921
relative viability (Mirin + Bortezomib; first compound 2.5 µM): 0.967
relative viability (Mirin + Bortezomib; first compound 25 µM): 1.43
relative viability ([1]; first compound 0.04 µM): 0.558
relative viability ([1]; first compound 0.1265 µM): 0.409
relative viability ([1]; first compound 0.4 µM): 0.601
relative viability ([1]; first compound 1.265 µM): 0.288
relative viability ([1]; first compound 4 µM): 0.556
relative viability ([2]; first compound 0.04 µM): 0.74
relative viability ([2]; first compound 0.1265 µM): 0.5
relative viability ([2]; first compound 0.4 µM): 0.371
relative viability ([2]; first compound 1.265 µM): 0.298
relative viability ([2]; first compound 4 µM): 0.215
relative viability ([3]; first compound 0.04 µM): 0.551
relative viability ([3]; first compound 0.1265 µM): 0.616
relative viability ([3]; first compound 0.4 µM): 0.626
relative viability ([3]; first compound 1.265 µM): 0.548
relative viability ([3]; first compound 4 µM): 0.643

COR-L 105
relative viability (Mirin + Bortezomib; first compound 0.25 µM): 0.866
relative viability (Mirin + Bortezomib; first compound 0.7906 µM): 0.759
relative viability (Mirin + Bortezomib; first compound 2.5 µM): 0.903
relative viability (Mirin + Bortezomib; first compound 7.906 µM): 0.992
relative viability (Mirin + Bortezomib; first compound 25 µM): 0.769
relative viability ([1]; first compound 0.04 µM): 0.416
relative viability ([1]; first compound 0.1265 µM): 0.444
relative viability ([1]; first compound 0.4 µM): 0.371
relative viability ([1]; first compound 1.265 µM): 0.363
relative viability ([1]; first compound 4 µM): 0.428
relative viability ([2]; first compound 0.04 µM): 0.663
relative viability ([2]; first compound 0.1265 µM): 0.571
relative viability ([2]; first compound 0.4 µM): 0.371
relative viability ([2]; first compound 1.265 µM): 0.273
relative viability ([2]; first compound 4 µM): 0.264
relative viability ([3]; first compound 0.04 µM): 0.629
relative viability ([3]; first compound 0.1265 µM): 0.403
relative viability ([3]; first compound 0.4 µM): 0.536
relative viability ([3]; first compound 1.265 µM): 0.401
relative viability ([3]; first compound 4 µM): 0.502

NCI-H2405
relative viability (Mirin + Bortezomib; first compound 0.25 µM): 1.02
relative viability (Mirin + Bortezomib; first compound 0.7906 µM): 0.765
relative viability (Mirin + Bortezomib; first compound 2.5 µM): 0.967
relative viability (Mirin + Bortezomib; first compound 7.906 µM): 0.972
relative viability (Mirin + Bortezomib; first compound 25 µM): 1.01
relative viability ([1]; first compound 0.04 µM): 0.578
relative viability ([1]; first compound 0.1265 µM): 0.53
relative viability ([1]; first compound 0.4 µM): 0.513
relative viability ([1]; first compound 4 µM): 0.594
relative viability ([2]; first compound 0.04 µM): 0.964
relative viability ([2]; first compound 0.1265 µM): 0.782
relative viability ([2]; first compound 0.4 µM): 0.655
relative viability ([2]; first compound 1.265 µM): 0.257
relative viability ([2]; first compound 4 µM): 0.285
relative viability ([3]; first compound 0.04 µM): 0.418
relative viability ([3]; first compound 0.1265 µM): 0.401
relative viability ([3]; first compound 0.4 µM): 0.419
relative viability ([3]; first compound 4 µM): 0.492

NCI-H2228
relative viability (Mirin + Bortezomib; first compound 0.25 µM): 0.983
relative viability (Mirin + Bortezomib; first compound 0.7906 µM): 1.04
relative viability (Mirin + Bortezomib; first compound 2.5 µM): 1
relative viability (Mirin + Bortezomib; first compound 7.906 µM): 0.919
relative viability (Mirin + Bortezomib; first compound 25 µM): 1.2
relative viability ([1]; first compound 0.1265 µM): 0.595
relative viability ([1]; first compound 0.4 µM): 0.684
relative viability ([1]; first compound 1.265 µM): 0.472
relative viability ([1]; first compound 4 µM): 0.877
relative viability ([2]; first compound 0.04 µM): 0.468
relative viability ([2]; first compound 0.1265 µM): 0.385
relative viability ([2]; first compound 0.4 µM): 0.49
relative viability ([2]; first compound 1.265 µM): 0.432
relative viability ([2]; first compound 4 µM): 0.471
relative viability ([3]; first compound 0.04 µM): 0.313
relative viability ([3]; first compound 0.1265 µM): 0.341
relative viability ([3]; first compound 0.4 µM): 0.286
relative viability ([3]; first compound 1.265 µM): 0.312
relative viability ([3]; first compound 4 µM): 0.399

PC-14
relative viability (Mirin + Bortezomib; first compound 0.25 µM): 0.895
relative viability (Mirin + Bortezomib; first compound 0.7906 µM): 0.852
relative viability (Mirin + Bortezomib; first compound 2.5 µM): 0.894
relative viability (Mirin + Bortezomib; first compound 7.906 µM): 1.06
relative viability (Mirin + Bortezomib; first compound 25 µM): 1.04
relative viability ([1]; first compound 0.04 µM): 0.519
relative viability ([1]; first compound 0.1265 µM): 0.518
relative viability ([1]; first compound 0.4 µM): 0.548
relative viability ([1]; first compound 1.265 µM): 0.608
relative viability ([1]; first compound 4 µM): 0.506
relative viability ([2]; first compound 0.04 µM): 0.874
relative viability ([2]; first compound 0.1265 µM): 0.884
relative viability ([2]; first compound 0.4 µM): 0.87
relative viability ([2]; first compound 1.265 µM): 0.683
relative viability ([2]; first compound 4 µM): 0.7
relative viability ([3]; first compound 0.04 µM): 0.463
relative viability ([3]; first compound 0.1265 µM): 0.472
relative viability ([3]; first compound 0.4 µM): 0.561
relative viability ([3]; first compound 1.265 µM): 0.669
relative viability ([3]; first compound 4 µM): 0.567

NCI-H2087
relative viability (Mirin + Bortezomib; first compound 0.25 µM): 0.885
relative viability (Mirin + Bortezomib; first compound 0.7906 µM): 0.826
relative viability (Mirin + Bortezomib; first compound 2.5 µM): 0.87
relative viability (Mirin + Bortezomib; first compound 7.906 µM): 0.924
relative viability (Mirin + Bortezomib; first compound 25 µM): 1.16
relative viability ([1]; first compound 0.04 µM): 0.264
relative viability ([1]; first compound 0.1265 µM): 0.235
relative viability ([1]; first compound 0.4 µM): 0.242
relative viability ([1]; first compound 1.265 µM): 0.184
relative viability ([1]; first compound 4 µM): 0.201
relative viability ([2]; first compound 0.1265 µM): 0.591
relative viability ([2]; first compound 0.4 µM): 0.678
relative viability ([2]; first compound 1.265 µM): 0.522
relative viability ([2]; first compound 4 µM): 0.336
relative viability ([3]; first compound 0.04 µM): 0.499
relative viability ([3]; first compound 0.1265 µM): 0.465
relative viability ([3]; first compound 0.4 µM): 0.448
relative viability ([3]; first compound 1.265 µM): 0.467
relative viability ([3]; first compound 4 µM): 0.496

A549
relative viability ([2]; first compound 0.04 µM): 0.837
relative viability ([2]; first compound 0.1265 µM): 0.417
relative viability ([2]; first compound 0.4 µM): 0.223
relative viability ([2]; first compound 1.265 µM): 0.086
relative viability ([2]; first compound 4 µM): 0.114
relative viability ([3]; first compound 0.04 µM): 0.178
relative viability ([3]; first compound 0.1265 µM): 0.143
relative viability ([3]; first compound 0.4 µM): 0.191
relative viability ([3]; first compound 1.265 µM): 0.161
relative viability ([3]; first compound 4 µM): 0.164

NCI-H2342
relative viability ([1]; first compound 0.04 µM): 0.569
relative viability ([1]; first compound 0.1265 µM): 0.514
relative viability ([1]; first compound 0.4 µM): 0.511
relative viability ([1]; first compound 1.265 µM): 0.463
relative viability ([1]; first compound 4 µM): 0.477
relative viability ([3]; first compound 0.04 µM): 0.579
relative viability ([3]; first compound 0.1265 µM): 0.477
relative viability ([3]; first compound 0.4 µM): 0.611
relative viability ([3]; first compound 1.265 µM): 0.429
relative viability ([3]; first compound 4 µM): 0.547

NCI-H1623
relative viability ([3]; first compound 0.04 µM): 0.58
relative viability ([3]; first compound 0.1265 µM): 0.543
relative viability ([3]; first compound 0.4 µM): 0.604
relative viability ([3]; first compound 1.265 µM): 0.525
relative viability ([3]; first compound 4 µM): 0.62

Source: the supplement of paper PMC10307832
